Test results as given in PMC10258805, “Nonpeptidic Oxazole-Based Prolyl Oligopeptidase Ligands with Disease-Modifying Effects on α-Synuclein Mouse Models of Parkinson’s Disease” (Journal of Medicinal Chemistry, 2023).
Entries after “also recorded” stand apart in the source; their conditions may differ.

Assays:
[1] = system: pPP2Ac and PP2Ac in HEK-293 cells; experiment: PP2A marker assay (Western blot); assay type: cell-based, human; conditions: HEK-293, 10 μM
human FAP = target: T1, human FAP (Homo sapiens, UniProt Q12884); experiment: Close-relative enzyme specificity assay, FAP; assay type: biochemical; conditions: 1 or 10 μM
T1 construct: the human secretion signal was replaced with the HoneyBee melittin secretion signal; HoneyBee melittin secretion signal (N); His tag from the C-terminal BaculoDirect vector (inferred from Ni-chelating purification; the vector also adds V5, own knowledge) (C); made in house; host or cells: Sf9 insect cells
T1 sequence (Q12884 26-760 limits assumed): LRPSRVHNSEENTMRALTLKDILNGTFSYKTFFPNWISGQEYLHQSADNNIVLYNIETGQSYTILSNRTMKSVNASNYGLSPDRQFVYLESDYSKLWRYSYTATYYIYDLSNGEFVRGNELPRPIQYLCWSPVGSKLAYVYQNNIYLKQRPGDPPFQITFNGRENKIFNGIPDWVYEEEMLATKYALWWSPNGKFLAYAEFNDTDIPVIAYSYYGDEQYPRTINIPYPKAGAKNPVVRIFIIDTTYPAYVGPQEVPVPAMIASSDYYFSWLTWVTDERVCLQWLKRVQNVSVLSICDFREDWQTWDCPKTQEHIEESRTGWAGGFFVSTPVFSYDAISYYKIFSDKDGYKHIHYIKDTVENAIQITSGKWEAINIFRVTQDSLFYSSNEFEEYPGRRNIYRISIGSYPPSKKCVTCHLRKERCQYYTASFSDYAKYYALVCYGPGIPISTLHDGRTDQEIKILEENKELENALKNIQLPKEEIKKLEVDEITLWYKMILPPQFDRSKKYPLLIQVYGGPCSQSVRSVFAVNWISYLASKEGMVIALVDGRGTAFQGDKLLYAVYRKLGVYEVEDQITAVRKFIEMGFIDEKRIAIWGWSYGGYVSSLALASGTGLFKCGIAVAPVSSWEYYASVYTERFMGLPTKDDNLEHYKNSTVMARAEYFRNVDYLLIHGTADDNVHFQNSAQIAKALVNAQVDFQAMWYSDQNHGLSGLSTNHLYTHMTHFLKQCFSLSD
Text: FAP: A gateway-entry clone for human FAP was purchased from Dharmacon (Accession number DQ891423), and the human secretion signal was replaced with the HoneyBee melittin secretion signal. For transfection and expression of FAP in Sf9 insect cells, the C-terminal BaculoDirect kit from LifeTechnologies was used. The enzyme was purified from the supernatant of the insect cells using immobilized Ni-chelating chromatography (GE Healthcare, Diegem, Belgium), followed by anion-exchange chromatography using a 1 mL HiTrap Q and size exclusion chromatography using the Superdex 200 column (GE Healthcare, Diegem, Belgium).
Measurements were done on the Infinite 200 as above.

SH-SY5Y cells = experiment: Cell viability (MTT) in SH-SY5Y cells; assay type: cell-based, human; conditions: up to 100 μM, 24 h
Procedure: Toxicity testing of selected compounds
The impact of compounds on cell viability was assayed at the end of incubation period using a standard MTT assays as described earlier in Svarcbahs et al.11 and Myöhänen et al.12 HEK-293 and SH-SY5Y cells and mouse primary neurons were seeded onto 96-well plates (10,000 cells/well) and incubated overnight. Thereafter, the cells were incubated with 1, 10, and 100 µM of study compounds for 24 h (HEK-293 and SH-SY5Y cells) or 48 h (mouse primary neurons), followed by the measurement of mitochondrial […]
Figure S68. Selected oxazoles were tested for cell viability in an MTT assay after 24 h treatment in (A) HEK-293 cells and (B) SH-SY5Y cells and 48 h treatment in (C) mouse primary neurons. Even with the high […]
Data are presented as mean + […]
LC-MS detection of HUP-55 metabolites in the mouse brain
The same column and gradient was used with UPLC-HDMS analysis of the metabolites of HUP-55, as for the analysis of HUP-55 detailed in the experimental section of the article. The analyses were performed with ESI (+) resolution mode and the exact masses were analysed with UPLC-Synapt G2 QTOF/MS (Waters). The […]
Compound Retention time (min) m/z (M+H)+ Empirical formula

LC3BII in mouse brain = LC3BII in mouse brain (Western blot); assay type: in vivo; conditions: 10 mg/kg i.p., 45 min after injection
DPP4 = target: T2, DPP4 (Homo sapiens, UniProt P27487); experiment: Close-relative enzyme specificity assay, DPP4; assay type: biochemical; conditions: 1 or 10 μM
T2 construct: DPPIV was purified from human seminal plasma; from tissue; host or cells: human seminal plasma
T2 sequence (P27487 whole entry): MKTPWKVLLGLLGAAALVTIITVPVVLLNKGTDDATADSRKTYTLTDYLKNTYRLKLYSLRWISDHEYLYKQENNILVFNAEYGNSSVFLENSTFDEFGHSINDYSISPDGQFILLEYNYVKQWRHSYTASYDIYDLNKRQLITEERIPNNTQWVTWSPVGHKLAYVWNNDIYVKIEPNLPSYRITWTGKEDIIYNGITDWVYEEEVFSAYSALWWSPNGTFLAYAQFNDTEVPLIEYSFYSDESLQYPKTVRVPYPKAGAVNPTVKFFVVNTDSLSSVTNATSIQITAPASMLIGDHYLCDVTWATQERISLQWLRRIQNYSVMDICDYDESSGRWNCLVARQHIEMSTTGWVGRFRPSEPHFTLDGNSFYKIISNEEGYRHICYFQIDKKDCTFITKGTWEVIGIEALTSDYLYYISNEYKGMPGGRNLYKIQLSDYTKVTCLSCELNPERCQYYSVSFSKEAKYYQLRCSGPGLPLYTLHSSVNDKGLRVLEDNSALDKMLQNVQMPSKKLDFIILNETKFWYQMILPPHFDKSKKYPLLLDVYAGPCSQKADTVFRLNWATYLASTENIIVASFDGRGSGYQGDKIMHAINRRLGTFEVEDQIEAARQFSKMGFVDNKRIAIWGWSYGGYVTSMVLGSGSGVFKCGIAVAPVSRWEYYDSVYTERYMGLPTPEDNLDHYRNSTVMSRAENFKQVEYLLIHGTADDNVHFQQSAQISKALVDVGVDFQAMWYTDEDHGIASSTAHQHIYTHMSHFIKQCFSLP
Procedure: DPP4: DPPIV was purified from human seminal plasma, as described previously.
DPP4 and DPP9: Ala-Pro-para-nitroanilide (pNA) was used as the substrate at the respective concentrations of 25 μM (DPP4) or 150 μM (DPP9) at pH 7.4 (0.05 M HEPES–NaOH buffer with 0.1% Tween-20, 0.1 mg/mL BSA, and 150 mM NaCl). […] Measurements were done on the Infinite 200 as above.

LC3BII in HEK-293 cells = experiment: Autophagy marker LC3BII assay (Western blot); assay type: cell-based, human; conditions: HEK-293, 10 μM
[2] = system: oligomeric αSyn in A30P*A53T transgenic mice; experiment: Oligomeric αSyn in A30P*A53T transgenic mice; assay type: in vivo, mouse; conditions: TG mice, 10 mg/kg i.p. every 12 h for 7 days, vs vehicle
[3] = system: oligomeric αSyn in AAV-αSyn-injected mice; experiment: Oligomer-specific αSyn immunoreactivity (OD) in AAV-αSyn PD mouse model; conditions: 10 mg/kg/day minipump, 4 weeks

With `Cc1nc(CCCc2ccccc2)oc1N1CCC[C@H]1C#N` [HUP-55, (S)-1-(4-Methyl-2-(3-phenylpropyl)oxazol-5-yl)pyrrolidine-2-carbonitrile] the “pPP2Ac levels (in words)” value ([1]; 4 h) was “significant decrease in pPP2Ac levels”, the “total PP2Ac levels (in words)” value ([1]; 4 h) was “elevated total PP2Ac levels” and the “PP2Ac levels (in words)” value ([1]; 24 h) was “significantly elevated”. For the same compound, the “inhibition of FAP” value (human FAP) was “no inhibition; also recorded: does not inhibit”, the “toxicity (cell viability)” value (SH-SY5Y cells) was “None of the compounds caused any toxicity” and the “levels of LC3BII in mouse brain (in words)” value (LC3BII in mouse brain) was “significantly elevated”. For the same compound, the “inhibition of DPP4” value (DPP4) was “no inhibition; also recorded: does not inhibit”, the “LC3BII levels (in words)” value (LC3BII in HEK-293 cells; 4 h) was “significant increase in LC3BII levels” and the “LC3BII levels (in words)” value (LC3BII in HEK-293 cells; 24 h) was “significantly elevated LC3BII levels”. The “decrease of oligomeric αSyn in the SNpc” value ([2]; nonsignificant) was 38%, the “decrease of oligomeric αSyn in the STR” value ([2]; not statistically significant) was 47% and the “OD of oligomeric αSyn in the SNpc (in words)” value ([3]; vs vehicle-treated group) was “did not significantly reduce”. For the same compound, the “OD of oligomer-specific αSyn in the STR (in words)” value ([3]; vs vehicle-treated mice) was “decreased the OD of oligomer-specific αSyn”.
